Columns and labels:
[1] = molecular target: Acetylcholinesterase (Electrophorus electricus) (UniProt O42275); conditions: at 2 mg/mL
Description: Inhibition of electric eel AChE at 2 mg/ml by Ellman's method

[2] = molecular target: Cholinesterase (Equus caballus) (UniProt P81908); conditions: at 2 mg/mL
Cholinesterase (Equus caballus), sequence (P81908 whole entry): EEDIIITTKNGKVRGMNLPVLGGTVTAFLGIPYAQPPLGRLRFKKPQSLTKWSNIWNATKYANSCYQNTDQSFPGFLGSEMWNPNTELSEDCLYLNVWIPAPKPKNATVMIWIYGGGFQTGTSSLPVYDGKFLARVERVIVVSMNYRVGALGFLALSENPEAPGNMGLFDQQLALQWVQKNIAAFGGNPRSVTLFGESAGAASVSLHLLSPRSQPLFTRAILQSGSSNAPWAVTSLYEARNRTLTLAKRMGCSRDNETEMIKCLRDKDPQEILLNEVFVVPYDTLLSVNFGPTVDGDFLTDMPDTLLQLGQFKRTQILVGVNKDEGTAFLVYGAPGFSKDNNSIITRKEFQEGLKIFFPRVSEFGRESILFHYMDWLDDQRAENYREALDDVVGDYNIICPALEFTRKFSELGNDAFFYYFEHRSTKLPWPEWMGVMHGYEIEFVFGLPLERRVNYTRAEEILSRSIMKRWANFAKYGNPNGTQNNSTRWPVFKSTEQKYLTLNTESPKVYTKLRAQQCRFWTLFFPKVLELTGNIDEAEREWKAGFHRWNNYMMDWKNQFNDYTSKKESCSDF
Description: Inhibition of horse BChE at 2 mg/ml by Ellman's method

Compound	inhibition [1] [%]	inhibition [2] [%]
CC1(C)[C@@H](O)C[C@H]2[C@](C)(O)[C@@H]3CC[C@@H]4[C@@H](O)[C@@]3(C[C@@H](O)[C@@]21O)C[C@@]4(C)O	-8.91	4.52
COc1c(O)cc2c(c1O)[C@@H]1O[C@H](CO)[C@@H](O)[C@H](O)[C@H]1OC2=O	7.33	-0.62
CCN1C[C@]2(COC)CC[C@H](OC)[C@]34C5C[C@@H]6[C@@H](OC)C[C@@]7(OCO[C@@]7(C13)[C@@H](O)C24)C5[C@H]6OC (stereo partly specified)	23.4	-6.6
CCN1C[C@]2(COC)CC[C@H](O)[C@@]34C5C[C@@H]6[C@@H](OC)C[C@](O)(C(CC23)C14)C5[C@H]6OC(C)=O (stereo partly specified)	28.9	-0.23
CCCCCCCCCCCCCC[C@@H](O)[C@@H](O)[C@@H](N)CO	24.4	7.46
COc1ccc(-c2cc(=O)c3c(O)cc(O)cc3o2)cc1O	-8.89	-6.13
CCN1C[C@]2(COC)[C@H](O)C[C@H](OC)[C@@]34[C@@H]5C[C@@]6(O)[C@H](OC(=O)c7ccccc7)[C@@H]5[C@@](OC(C)=O)([C@@H]([C@H](OC)[C@H]23)[C@@H]14)[C@@H](O)[C@@H]6OC	17.6	3.01
COc1cccc2c1C(=O)c1c(O)c3c(c(O)c1C2=O)C[C@@](O)(C(C)=O)C[C@@H]3O[C@H]1C[C@H](N)[C@H](O)[C@H](C)O1	18.1	-0.13
COc1ccc2c(OC)c3ccoc3nc2c1OC	39.3	6.79
IVERMECTIN	17.8	-3.98
CC1(C)CC[C@]2(C(=O)O)CC[C@]3(C)C(=CC[C@@H]4[C@@]5(C)CC[C@H](O)C(C)(C)[C@@H]5CC[C@]43C)[C@@H]2C1	10.2	0.92
CN1[C@@H]2CC[C@H]1C[C@@H](OC(=O)C(CO)c1ccccc1)C2 (stereo partly specified)	15.2	4.01
CC1=CC(=O)C(C(C)C)=CC1=O	7.9	-0.33
CC1(C)CCC[C@](C)([C@H]2CC[C@]3(C)[C@@H]2[C@H](O)C[C@@H]2[C@@]4(C)CC[C@H](O)C(C)(C)[C@@H]4[C@@H](O)C[C@]23C)O1	6.16	8.34
O=C(CCc1ccc(O)cc1)c1c(O)cc(O)cc1O[C@@H]1O[C@H](CO)[C@@H](O)[C@H](O)[C@H]1O	-6.94	5.38
CC1=CC(=O)C2=C(C)CC[C@@H]3[C@H](OC(=O)[C@H]3C)[C@@H]12	-3.63	0.28
CC(C)(S)[C@H](N)C(=O)O	11.7	-6.36
O=c1cccc2n1C[C@@H]1CNC[C@H]2C1	2.17	-3.85
CC1=CC(=O)c2ccccc2C1=O	17.8	-1.75
COc1ccc2ccc(=O)oc2c1CC=C(C)C	3.31	-0.19

Compound	inhibition [1] [%]	inhibition [2] [%]
CC[C@@H]1/C=C/C=C/C[C@H](C)[C@H](O)[C@](C)(O)C(=O)[C@H](C)[C@@H](O)[C@H](C)C(=O)[C@H](C)[C@@H](O)[C@H](C)/C=C/C(=O)O[C@H]2[C@@H](C)[C@@H](CC1)O[C@@]1(CC[C@@H](C)[C@@H](C[C@H](C)O)O1)[C@@H]2C	-5.62	1.56
CC(=O)N[C@H]1CN2CC[C@H](O)[C@@H]2[C@@H](O)[C@@H]1O	2.39	9.19
CC[C@@H](C(=O)[C@@H](C)[C@@H](O)[C@H](C)CCc1ccc(C)c(O)c1C(=O)O)[C@H]1O[C@](CC)([C@H]2CC[C@](O)(CC)[C@H](C)O2)C[C@@H]1C	-1.88	10.5
C[C@H]1O[C@@H](O[C@H]2[C@@H](O)C[C@H](O[C@H]3[C@@H](O)C[C@H](O[C@H]4CC[C@@]5(C)[C@H](CC[C@@H]6[C@@H]5CC[C@]5(C)[C@@H](C7=CC(=O)OC7)CC[C@]65O)C4)O[C@@H]3C)O[C@@H]2C)C[C@H](O)[C@@H]1O	-1.83	-0.78
O=c1c(O[C@@H]2O[C@H](CO)[C@@H](O)[C@H](O)[C@H]2O)c(-c2ccc(O)c(O)c2)oc2cc(O)cc(O)c12	0.12	2.54
O=c1cc(-c2ccc(O)c(O)c2)oc2cc(O)cc(O)c12	13.6	0.42
C[C@H]1CCC[C@@H](O)CCCCCc2cc(O)cc(O)c2C(=O)O1	-1.34	-4.26
O=C(/C=C/c1ccc(O)c(O)c1)O[C@H](Cc1ccc(O)c(O)c1)C(=O)O	14.9	-3.64
CC[C@@H](C)C(=O)O[C@H]1[C@H](O)[C@H]2[C@@H](CN3C[C@@H](C)CC[C@H]3[C@@]2(C)O)[C@@H]2C[C@]34O[C@]5(O)[C@@H](OC(=O)[C@](C)(O)[C@@H](C)O)CC[C@@]3(C)[C@@H]5[C@@H](OC(C)=O)[C@@H](OC(C)=O)[C@H]4[C@@]21O	-5.22	-0.35
O=c1cc(-c2ccc(O)cc2)oc2c([C@@H]3O[C@H](CO)[C@@H](O)[C@H](O)[C@H]3O)c(O)cc(O)c12	3.3	2.26
COc1ccc2cc1Oc1ccc(cc1)C[C@H]1c3cc(c(OC)cc3CCN1C)Oc1c(OC)c(OC)c(OC)c3c1[C@H](C2)N(C)CC3	23.4	-7.66
C[C@@H]1O[C@@H](Oc2c(-c3ccc(O)c(O)c3)oc3cc(O)cc(O)c3c2=O)[C@H](O)[C@H](O)[C@H]1O	0.25	-6.56
CCCC(=O)O[C@@H]1[C@@H](C)[C@@]2(O)[C@@H](C=C(CO)C[C@]3(O)C(=O)C(C)=C[C@@H]23)[C@@H]2C(C)(C)[C@]12OC(=O)CCC (stereo in doubt; form 2)	19.5	5.87
Cc1coc2c1C(=O)C(=O)c1c-2ccc2c1CCCC2(C)C	13.1	-0.66
C[C@H]1CC[C@@H]2[C@@H](C)[C@H]3[C@H](C[C@H]4[C@@H]5CC=C6C[C@@H](O[C@@H]7O[C@H](CO)[C@H](O)[C@H](O[C@@H]8O[C@H](CO)[C@@H](O)[C@H](O)[C@H]8O)[C@H]7O[C@@H]7O[C@@H](C)[C@H](O)[C@@H](O)[C@H]7O)CC[C@]6(C)[C@H]5CC[C@]34C)N2C1	9.15	12.2
CN1CCc2cc3c(cc2[C@H]1[C@@H]1OC(=O)c2c1ccc1c2OCO1)OCO3	20.7	0.63
COc1cc2c(c(OC)c1OC)-c1c(cc(OC)c(OC)c1OC)C[C@H](C)[C@H](C)C2	-1.7	-4.82
CC(=O)O[C@H]1C(=O)[C@@]2(C)[C@H]([C@H](OC(=O)c3ccccc3)[C@]3(O)C[C@H](OC(=O)[C@H](O)[C@@H](NC(=O)c4ccccc4)c4ccccc4)C(C)=C1C3(C)C)[C@]1(OC(C)=O)CO[C@@H]1C[C@@H]2O	12.5	-2.88
COc1ccc([C@@H]2CC(=O)c3c(O)cc(O[C@@H]4O[C@H](CO)[C@@H](O)[C@H](O)[C@H]4O[C@@H]4O[C@@H](C)[C@H](O)[C@@H](O)[C@H]4O)cc3O2)cc1O	4.86	0.1
COC(=O)/C(=C1/OC(=O)C(c2ccccc2)=C1O)c1ccccc1	4.9	0.35

Compound	inhibition [1] [%]	inhibition [2] [%]
CCCCCCC(=O)CCCCCC/C=C/C[C@@H](O)[C@H](O)[C@@](N)(CO)C(=O)O	-8.15	1.5
CSC(=S)NCc1c[nH]c2ccccc12	-0.26	-5.64
C[C@H]1[C@H](C)CC[C@]2(C(=O)O)CC[C@]3(C)C(=CC[C@@H]4[C@@]5(C)C[C@@H](O)[C@H](O)[C@@](C)(CO)[C@@H]5CC[C@]43C)[C@H]12	3.99	-8.64
COc1cc2c(cc1O)CCN[C@H]2C	10.8	-4.77
COc1ccc(/C=C/c2cc(OC)cc(=O)o2)cc1	7.69	-1.55
Oc1cc(O)cc(/C=C/c2ccc(O)c(O)c2)c1	17	2.21
C[C@H]1O[C@@H](Oc2c(-c3cc(O)c(O)c(O)c3)oc3cc(O)cc(O)c3c2=O)[C@@H](O)[C@@H](O)[C@@H]1O	20.9	-2.1
O=C(/C=C/C=C/c1ccc2c(c1)OCO2)N1CCCCC1	-0.1	16.8
CC[C@H]1CN2CCc3cc(OC)c(OC)cc3[C@@H]2C[C@@H]1C[C@H]1NCCc2cc(O)c(OC)cc21	11.9	-6.9
C[C@@H]1CC[C@H]2[C@@H](C)C(=O)O[C@@H]3O[C@@]4(C)CC[C@@H]1[C@]32OO4	2.43	35.6
CO[C@@H]1[C@H](OC(=O)/C=C/C=C/C=C/C=C/C(=O)O)CC[C@]2(CO2)[C@H]1[C@@]1(C)O[C@@H]1CC=C(C)C	-8.57	-3.3
C[C@@H]1C(=O)O[C@H]2[C@H](O)[C@@]34[C@H]5C[C@@H](C(C)(C)C)[C@]36[C@@H](OC(=O)[C@@H]6O)O[C@@]4(C(=O)O5)[C@@]12O	-7.35	9.99
C=C1C[C@]23C[C@@]1(O)CC[C@H]2[C@@]12C=C[C@H](O)[C@@](C)(C(=O)O1)[C@H]2[C@@H]3C(=O)O	-1.11	-5.65
COc1cc(O)c2c(=O)c(O)c(-c3ccc(O)c(O)c3)oc2c1	23.7	3.5
CO[C@@H]1[C@H](O)C[C@@H](O[C@@H]2C[C@H](Oc3cc4cc5c(c(O)c4c(O)c3C)C(=O)[C@@H](O[C@H]3C[C@@H](O[C@H]4C[C@@H](O[C@H]6C[C@](C)(O)[C@@H](OC(C)=O)[C@H](C)O6)[C@H](O)[C@@H](C)O4)[C@H](O)[C@@H](C)O3)[C@H]([C@H](OC)C(=O)[C@@H](O)[C@@H](C)O)C5)O[C@H](C)[C@@H]2OC(C)=O)O[C@@H]1C	5.47	3.95
CCCC(=O)O[C@@H]1[C@@H](C)[C@@]2(O)[C@@H](C=C(CO)C[C@]3(O)C(=O)C(C)=C[C@@H]23)[C@@H]2C(C)(C)[C@]12OC(=O)CCC (stereo in doubt; form 1)	22.5	0.87
C=C1[C@H]2C[C@@]3([C@@H]1O)[C@@H](CC2=O)[C@]12[C@@H]4C[C@H]3[C@H]1N(CC)C[C@]4(C)CC[C@@H]2O	26.3	1.01
O=C(/C=C/c1ccc(O)c(O)c1)OCCc1ccccc1	-8.88	17.7

Reference: ChEMBL document CHEMBL2163249, “Exploration of natural compounds as sources of new bifunctional scaffolds targeting cholinesterases and beta amyloid aggregation: the case of chelerythrine” (Bioorg Med Chem, 2012)
